Results on ten compounds are retold here after PubChem BioAssay (NCI).

SMILES strings stand for the structures. “And” between values parts separate entries of the source, which are not always exact repeats. Identical values can stand only once.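 Compound exposure: 48 hours, 5 concentrations, 96-well plates. The concentration for 50% growth inhibition is given as GI50. TGI: concentration producing complete growth inhibition.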

Test systems include COLO 205 colon; ACHN renal; SF-539 CNS; U251 CNS; UO-31 renal; SW-620 colon; SF-295 CNS; HCT-116 colon; HOP-92 NSCLC.
Experiment in all cases: growth of human tumour cells (NCI), 48 h

Take `C[N+](C)(C)CCOP(=O)(O)OP(=O)([O-])OCC1CCC(n2ccc(N)nc2=O)O1` (stereo not given): the TGI in the experiment with COLO 205 colon, with ACHN renal, in the experiment with SF-539 CNS, with U251 CNS, in the experiment with UO-31 renal and in the experiment on SW-620 colon was > 100 µM each time. Moreover, the TGI in the experiment on SF-295 CNS, in the experiment on HCT-116 colon and with HOP-92 NSCLC was > 100 µM in each case.
For `OC(c1cc(C(O)(C(F)(F)F)C(F)(F)F)ncn1)(C(F)(F)F)C(F)(F)F`, the TGI in the experiment with COLO 205 colon, in the experiment on ACHN renal, in the experiment with SF-539 CNS, with U251 CNS, in the experiment on UO-31 renal and in the experiment with SW-620 colon was > 10 µM in each case. The TGI in the experiment on SF-295 CNS, in the experiment on HCT-116 colon and in the experiment with HOP-92 NSCLC was > 10 µM throughout.
Take `CCN(CC)CCn1ncc2ccc3c(c(=O)c4cccnc4n3CCN(CC)CC)c21`: the TGI in the experiment with COLO 205 colon was 1.46 µM; with ACHN renal, > 10 µM; in the experiment with SF-539 CNS, 1.95 µM; in the experiment with U251 CNS, 6.82 µM; in the experiment with UO-31 renal, > 8.52 µM; in the experiment on SW-620 colon, > 6.66 µM. In addition, the TGI was > 9.52 µM in the experiment with SF-295 CNS, > 5.81 µM in the experiment on HCT-116 colon and 4.37 µM in the experiment on HOP-92 NSCLC.
For `COc1cc2c(cc1OC)C(CCc1ccc(Cl)cc1)N(C)CC2` (stereo not given), the GI50 with COLO 205 colon is 17.6 µM; with ACHN renal it was 25.7 µM; with SF-539 CNS, 17.1 µM; in the experiment on U251 CNS, 22.8 µM; with UO-31 renal, 20.6 µM; with SW-620 colon, 19.3 µM. Besides, the GI50 is 9.32 µM in the experiment on SF-295 CNS, 13.8 µM with HCT-116 colon and 13.6 µM in the experiment on HOP-92 NSCLC. Also, the TGI is 34.6 µM in the experiment on COLO 205 colon; 92 µM in the experiment with ACHN renal; 39 µM in the experiment with SF-539 CNS; 64.3 µM in the experiment on U251 CNS; > 100 µM with UO-31 renal; 45.4 µM in the experiment on SW-620 colon. The TGI in the experiment on SF-295 CNS came out at 27 µM; in the experiment on HCT-116 colon, 52.9 µM; in the experiment on HOP-92 NSCLC, 92.7 µM.
In the case of `C/C(CC(O)(C(F)(F)F)C(F)(F)F)=N\N`, the TGI in the experiment on COLO 205 colon, with ACHN renal, in the experiment on SF-539 CNS, in the experiment on U251 CNS, in the experiment with SW-620 colon and in the experiment on SF-295 CNS was > 10 µM each time. Moreover, the TGI in the experiment with HCT-116 colon and with HOP-92 NSCLC was > 10 µM throughout.
`CC(C)=CC/C=C(/C)[C@H]1CC[C@]2(C)[C@@H]1CC[C@@H]1[C@@]3(C)CCC(=O)NC(C)(C)[C@@H]3CC[C@]12C`: the GI50 was 25.3 µM with COLO 205 colon; 20 µM in the experiment with ACHN renal; 16.5 µM in the experiment with SF-539 CNS; 17.2 µM with U251 CNS; 15.6 µM with UO-31 renal; 20.2 µM in the experiment on SW-620 colon. In addition, the GI50 with SF-295 CNS was 18.7 µM; in the experiment on HCT-116 colon, 15 µM; in the experiment with HOP-92 NSCLC, 13.8 µM. Further, the TGI in the experiment on COLO 205 colon worked out at 64.7 µM; with ACHN renal, 43 µM; with SF-539 CNS, 30.5 µM; in the experiment with U251 CNS, 36.5 µM; in the experiment on UO-31 renal, 29.2 µM; with SW-620 colon, 43.9 µM. Also, the figures for the TGI in the experiment on SF-295 CNS, with HCT-116 colon and with HOP-92 NSCLC were 36.6 µM, 34.5 µM and 28.2 µM, respectively.
For the compound `CCN1CCN(CCOc2ccc(CNc3ccc4nc(CCC5CCCCC5)[nH]c4c3)cc2)CC1`, the GI50 in the experiment with COLO 205 colon was 1.76 µM; in the experiment with ACHN renal, 2.79 µM; in the experiment with SF-539 CNS, 1.57 µM; in the experiment with U251 CNS, 1.49 µM; in the experiment on UO-31 renal, 1.42 µM; with SW-620 colon, 1.91 µM. The values for the GI50 in the experiment on SF-295 CNS, with HCT-116 colon and with HOP-92 NSCLC were 1.99 µM, 1.32 µM and 0.925 µM, respectively. Moreover, the TGI in the experiment with COLO 205 colon was determined as 3.52 µM; with ACHN renal, 7.96 µM; with SF-539 CNS, 3 µM; in the experiment on U251 CNS, 3.16 µM; in the experiment with UO-31 renal it was 2.79 µM; in the experiment on SW-620 colon, 4.14 µM. The TGI in the experiment on SF-295 CNS is 3.95 µM; in the experiment on HCT-116 colon it was 2.87 µM; in the experiment on HOP-92 NSCLC it was 3.09 µM.
Turning to `Cc1cccc(CN(C)c2ccc(CO)c(Cl)c2)c1`, the GI50 with COLO 205 colon was 4.86 µM; with ACHN renal it was 32.7 µM; in the experiment on SF-539 CNS, 26.8 µM; in the experiment with U251 CNS, 5.07 µM; with UO-31 renal it was 11.9 µM; in the experiment with SW-620 colon, 7.18 µM. The GI50 in the experiment with SF-295 CNS is 4.87 µM; in the experiment on HCT-116 colon it was 0.549 µM; with HOP-92 NSCLC it was 3.46 µM. The TGI in the experiment on COLO 205 colon was 17.7 µM; with ACHN renal, > 100 µM; in the experiment on SF-539 CNS it was > 77.3 µM; in the experiment with U251 CNS, 43.6 µM; in the experiment with UO-31 renal it was 64.3 µM; in the experiment with SW-620 colon, > 100 µM. Moreover, the TGI in the experiment with SF-295 CNS turned out to be 46.8 µM; in the experiment with HCT-116 colon, 12.3 µM; with HOP-92 NSCLC, 28.2 µM.
In the case of `O=C1NC(=NCC(CO)c2ccccc2)S/C1=C\c1ccc2ncccc2c1` (stereo not given), the GI50 in the experiment with COLO 205 colon was 7.77 µM; in the experiment on ACHN renal, 24.4 µM; with SF-539 CNS, 11.2 µM; in the experiment on U251 CNS it was 9.91 µM; in the experiment with UO-31 renal, > 25 µM; in the experiment with SW-620 colon it was 7.74 µM. Also, the GI50 in the experiment on SF-295 CNS is > 25 µM; in the experiment with HCT-116 colon it was 8.51 µM; in the experiment on HOP-92 NSCLC, > 25 µM. Moreover, the TGI in the experiment on COLO 205 colon, in the experiment on ACHN renal, in the experiment with SF-539 CNS, in the experiment on U251 CNS, with UO-31 renal and in the experiment with SW-620 colon was > 25 µM each time. Further, the TGI with SF-295 CNS, in the experiment on HCT-116 colon and with HOP-92 NSCLC was > 25 µM each time.
As for `CC1=C(N2CC2)C(=O)C(CO)=C(N2CC2)C1=O`, the GI50 was 0.135 µM and 0.084 µM in the experiment with COLO 205 colon; 0.00047 µM in the experiment on ACHN renal; 0.00301 µM in the experiment on SF-539 CNS; 0.00512 µM in the experiment with UO-31 renal; 0.00368 µM in the experiment on SW-620 colon; 0.0329 µM in the experiment on SF-295 CNS. The GI50 in the experiment on HCT-116 colon is 0.00728 µM; in the experiment with HOP-92 NSCLC, 0.0183 µM and 0.018 µM. Moreover, the TGI is 0.29 µM and 0.23 µM in the experiment with COLO 205 colon; 0.019 µM and 0.0593 µM in the experiment on SF-539 CNS; 0.285 µM with U251 CNS; 0.0231 µM and 0.0319 µM in the experiment with UO-31 renal; 1.06 µM with SF-295 CNS; 0.0392 µM and 0.336 µM with HCT-116 colon. Also, the TGI in the experiment with HOP-92 NSCLC was 0.247 µM and 0.28 µM.
